According to US7138361B2, “Herbicidal heterocycles” (E. I. du Pont de Nemours and Company, priority 2000, dated 2006):

Key:
Type in all cases: in vivo
[1] = system: corn (Zea mays); test: Test B postemergence
How it was run: (§1)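 Visual injury scores, 0 = no effect to 100 = complete control, assigned against controls after 13 to 15 days in the greenhouse. Compounds formulated in non-phytotoxic solvent plus surfactant and applied to soil after planting (pre) or onto foliage of 1- to 4-leaf plants (post).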

[2] = system: barnyardgrass (Echinochloa crus-galli); test: Test B postemergence
How it was run: as §1

[3] = system: wild oat (Avena fatua); test: Test B postemergence
How it was run: as §1

[4] = system: wheat (Triticum aestivum); test: Test B postemergence
How it was run: as §1

[5] = system: Sunflower; test: Test C preemergence; settings: scale 0 to 100, 0 no effect, 100 complete control
[6] = system: Nightshade; test: Test C preemergence; settings: visual evaluation after 12 to 14 days
[7] = system: duck salad (Heteranthera limosa); test: Test C flooded paddy test; settings: for Ducksalad plant response rating: Flooded Paddy, scale 0 to 100, 0 no effect, 100 complete control; for Plant response rating, Ducksalad: flooded paddy test, scale 0 to 100 (0 no effect, 100 complete control)
How it was run: (§2)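 2-leaf-stage plants, flooded paddy; treated; greenhouse 12–14 days; compared with controls by eye; rated 0–100 (0 none, 100 complete control).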

[8] = system: rice (Oryza saliva); test: Test C flooded paddy test; settings: for Rice plant response rating: Flooded Paddy, scale 0 to 100, 0 no effect, 100 complete control; for Plant response rating, Rice: flooded paddy test, scale 0 to 100 (0 no effect, 100 complete control)
How it was run: as §2

[9] = system: barnyardgrass (Echinochloa crus-galli); test: Test C flooded paddy test; settings: for Barnyardgrass plant response rating: Flooded Paddy, scale 0 to 100, 0 no effect, 100 complete control; for Plant response rating, Barnyardgrass: flooded paddy test, scale 0 to 100 (0 no effect, 100 complete control)
How it was run: as §2

[10] = system: smallflower flatsedge (Cyperus difformis); test: Test C flooded paddy test; settings: for Flatsedge plant response rating: Flooded Paddy, scale 0 to 100, 0 no effect, 100 complete control; for Plant response rating, Flatsedge: flooded paddy test, scale 0 to 100 (0 no effect, 100 complete control)
How it was run: as §2

[11] = system: soybean (Glycine max); test: Test C preemergence; settings: for Plant response rating (0 to 100), Soybean: visual evaluation after 12 to 14 days
How it was run: (§3)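 Visual 0–100 rating vs controls (0 = no effect, 100 = complete control) at 12–14 d, greenhouse. Compounds in non-phytotoxic solvent + surfactant; pre: sprayed after seeding; post: 1–4-leaf plants, 2–18 cm.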

[12] = system: woolly cupgrass (Eriochloa villosa); test: Test C preemergence; settings: for Plant response rating (0 to 100), Cupgrass, Woolly: visual evaluation after 12 to 14 days
How it was run: as §3

[13] = system: yellow nutsedge (Cyperus esculentus); test: Test C preemergence; settings: for Plant response rating (0 to 100), Nutsedge: visual evaluation after 12 to 14 days
How it was run: as §3

[14] = system: Nightshade; test: Test C preemergence
[15] = system: corn (Zea mays); test: Test C preemergence; settings: for Plant response rating (0 to 100), Corn: visual evaluation after 12 to 14 days
How it was run: as §3

[16] = system: pigweed (Amaranthus retroflexus); test: Test C preemergence; settings: for Plant response rating (0 to 100), Pigweed: visual evaluation after 12 to 14 days
How it was run: as §3

[17] = system: kochia (Kochia scoparia); test: Test C preemergence; settings: for Plant response rating (0 to 100), Kochia: visual evaluation after 12 to 14 days
How it was run: as §3

[18] = system: johnsongrass (Sorghum halepense); test: Test C preemergence; settings: for Plant response rating (0 to 100), Johnsongrass: visual evaluation after 12 to 14 days
How it was run: as §3

[19] = system: lambsquarters (Chenopodium album); test: Test C preemergence; settings: for Plant response rating (0 to 100), Lambsquarters: visual evaluation after 12 to 14 days
How it was run: as §3

[20] = Rate 125 g/ha, scale 0 to 100, 0 no effect, 100 complete control
[21] = Rate 500 g/ha, scale 0 to 100, 0 is no effect, 100 is complete control, 13 to 15 days
[22] = preemergence, Rate 62 g/ha, scale 0 to 100
[23] = preemergence, Rate 250 g/ha, scale 0 to 100, 0 no effect, 100 complete control
[24] = Rate 125 g/ha, scale 0 (no effect) to 100 (complete control), 13 to 15 days
[25] = Preemergence, Rate 500 g/ha, scale 0 to 100
[26] = preemergence, Rate 125 g/ha, scale 0 to 100, 0 no effect, 100 complete control
[27] = Rate 62 g/ha, scale 0 to 100, 0 no effect, 100 complete control

CCCC(C)c1ccn(C2CCN(c3ccc(Cl)c(OC)c3)C2=O)n1 (stereo not shown) [Compound 121]
Plant response rating, Corn [1, 20]: 20 | Plant response rating, Corn [1, 21]: 30 | Plant response rating, Barnyardgrass [2, 20]: 0 | Plant response rating, Barnyardgrass [2, 21]: 90 | Plant response rating, Wild Oat [3, 20]: 30 | Plant response rating, Wheat [4, 20]: 50 | Plant response rating, Sunflower ([5]; Rate 250 g/ha): 50 | Plant response rating (0 to 100), Nightshade ([6]; Rate 500 g/ha): 100 | Ducksalad plant response rating ([7]; Rate 250 g/ha): 60 | Ducksalad plant response rating ([7]; Rate 500 g/ha): 90 | Plant response rating, Ducksalad ([7]; Rate 62 g/ha): 0 | Plant response rating, Ducksalad ([7]; Rate 125 g/ha): 0 | Rice plant response rating ([8]; Rate 250 g/ha): 0 | Rice plant response rating ([8]; Rate 500 g/ha): 0 | Plant response rating, Rice ([8]; Rate 125 g/ha): 0 | Barnyardgrass plant response rating ([9]; Rate 250 g/ha): 20 | Barnyardgrass plant response rating ([9]; Rate 500 g/ha): 80 | Plant response rating, Barnyardgrass ([9]; Rate 62 g/ha): 0 | Plant response rating, Barnyardgrass ([9]; Rate 125 g/ha): 20 | Flatsedge plant response rating ([10]; Rate 250 g/ha): 100 | Flatsedge plant response rating ([10]; Rate 500 g/ha): 100 | Plant response rating, Flatsedge ([10]; Rate 62 g/ha): 100 | Plant response rating, Flatsedge ([10]; Rate 125 g/ha): 100 | Plant response rating, Soybean [11, 20]: 60 | Plant response rating, Soybean [11, 22]: 0 | Plant response rating (0 to 100), Soybean ([11]; preemergence, Rate 500 g/ha): 100 | Plant response rating, Soybean [11, 23]: 90 | Plant response rating, Cupgrass, Woolly [12, 20]: 100 | Plant response rating, Cupgrass, Woolly [12, 22]: 80 | Plant response rating (0 to 100), Cupgrass, Woolly ([12]; preemergence, Rate 500 g/ha): 100 | Plant response rating, Cupgrass, Woolly [12, 23]: 100 | Plant response rating, Nutsedge [13, 20]: 0 | Plant response rating, Nutsedge [13, 22]: 0 | Plant response rating (0 to 100), Nutsedge ([13]; preemergence, Rate 500 g/ha): 0 | Plant response rating, Nutsedge [13, 23]: 0 | Plant response rating, Nightshade ([14]; Rate 62 g/ha, scale 0 to 100): 10 | Plant response rating, Nightshade ([14]; Rate 125 g/ha; scale 0 to 100, 0 no effect, 100 complete control): 90 | Plant response rating, Nightshade ([14]; Rate 250 g/ha, scale 0 to 100, 0 no effect, 100 complete control): 100 | Plant response rating, Corn [15, 20]: 20 | Plant response rating, Corn [15, 22]: 0 | Plant response rating (0 to 100), Corn ([15]; preemergence, Rate 500 g/ha): 90 | Plant response rating, Corn [15, 23]: 70 | Plant response rating, Pigweed [16, 20]: 50 | Plant response rating, Pigweed [16, 22]: 20 | Plant response rating (0 to 100), Pigweed ([16]; preemergence, Rate 500 g/ha): 100 | Plant response rating, Pigweed [16, 23]: 60 | Plant response rating, Kochia [17, 20]: 100 | Plant response rating, Kochia [17, 22]: 100 | Plant response rating (0 to 100), Kochia ([17]; preemergence, Rate 500 g/ha): 100 | Plant response rating, Kochia [17, 23]: 100 | Plant response rating, Johnsongrass [18, 20]: 90 | Plant response rating, Johnsongrass [18, 22]: 60 | Plant response rating (0 to 100), Johnsongrass ([18]; preemergence, Rate 500 g/ha): 100 | Plant response rating, Johnsongrass [18, 23]: 100 | Plant response rating, Lambsquarters [19, 20]: 100 | Plant response rating, Lambsquarters [19, 22]: 100 | Plant response rating (0 to 100), Lambsquarters ([19]; preemergence, Rate 500 g/ha): 100 | Plant response rating, Lambsquarters [19, 23]: 100

CCC(C)c1ccn(C2SCN(c3cccc(OC(F)(F)F)c3)C2=O)n1 (stereo not shown) [Compound 40]
Plant response rating, Corn [1, 24]: 0 | Plant response rating, Corn [1, 21]: 50 | Plant response rating, Barnyardgrass [2, 24]: 90 | Plant response rating, Barnyardgrass [2, 21]: 100 | Plant response rating, Wild Oat [3, 24]: 0 | Plant response rating, Wild Oat [3, 21]: 0 | Plant response rating, Wheat [4, 24]: 0 | Plant response rating, Wheat [4, 21]: 0 | Plant response rating, Sunflower ([5]; Rate 125 g/ha): 0 | Plant response rating (0 to 100), Nightshade ([6]; Rate 250 g/ha): 40 | Ducksalad plant response rating ([7]; Rate 250 g/ha): 100 | Ducksalad plant response rating ([7]; Rate 500 g/ha): 100 | Plant response rating, Ducksalad ([7]; Rate 62 g/ha): 90 | Plant response rating, Ducksalad ([7]; Rate 125 g/ha): 100 | Rice plant response rating ([8]; Rate 250 g/ha): 70 | Rice plant response rating ([8]; Rate 500 g/ha): 90 | Plant response rating, Rice ([8]; Rate 62 g/ha): 20 | Plant response rating, Rice ([8]; Rate 125 g/ha): 40 | Barnyardgrass plant response rating ([9]; Rate 250 g/ha): 100 | Barnyardgrass plant response rating ([9]; Rate 500 g/ha): 100 | Plant response rating, Barnyardgrass ([9]; Rate 62 g/ha): 100 | Plant response rating, Barnyardgrass ([9]; Rate 125 g/ha): 100 | Flatsedge plant response rating ([10]; Rate 250 g/ha): 100 | Flatsedge plant response rating ([10]; Rate 500 g/ha): 100 | Plant response rating, Flatsedge ([10]; Rate 62 g/ha): 100 | Plant response rating, Flatsedge ([10]; Rate 125 g/ha): 100 | Plant response rating, Soybean [11, 25]: 40 | Plant response rating (0 to 100), Soybean ([11]; preemergence, Rate 250 g/ha): 40 | Plant response rating, Soybean [11, 26]: 20 | Plant response rating, Cupgrass, Woolly [12, 25]: 100 | Plant response rating, Cupgrass, Woolly [12, 27]: 60 | Plant response rating (0 to 100), Cupgrass, Woolly ([12]; preemergence, Rate 250 g/ha): 90 | Plant response rating, Cupgrass, Woolly [12, 26]: 90 | Plant response rating, Nutsedge [13, 25]: 60 | Plant response rating, Nutsedge [13, 27]: 0 | Plant response rating (0 to 100), Nutsedge ([13]; preemergence, Rate 250 g/ha): 50 | Plant response rating, Nutsedge [13, 26]: 0 | Plant response rating, Nightshade ([14]; Rate 62 g/ha; scale 0 to 100, 0 no effect, 100 complete control): 0 | Plant response rating, Nightshade [14, 20]: 0 | Plant response rating, Nightshade ([14]; Rate 500 g/ha, scale 0 to 100): 70 | Plant response rating, Corn [15, 25]: 90 | Plant response rating, Corn [15, 27]: 0 | Plant response rating (0 to 100), Corn ([15]; preemergence, Rate 250 g/ha): 50 | Plant response rating, Corn [15, 26]: 20 | Plant response rating, Pigweed [16, 25]: 100 | Plant response rating, Pigweed [16, 27]: 0 | Plant response rating (0 to 100), Pigweed ([16]; preemergence, Rate 250 g/ha): 0 | Plant response rating, Pigweed [16, 26]: 100 | Plant response rating, Kochia [17, 25]: 100 | Plant response rating, Kochia [17, 27]: 60 | Plant response rating (0 to 100), Kochia ([17]; preemergence, Rate 250 g/ha): 100 | Plant response rating, Kochia [17, 26]: 90 | Plant response rating, Johnsongrass [18, 25]: 100 | Plant response rating, Johnsongrass [18, 27]: 50 | Plant response rating (0 to 100), Johnsongrass ([18]; preemergence, Rate 250 g/ha): 100 | Plant response rating, Johnsongrass [18, 26]: 100 | Plant response rating, Lambsquarters [19, 25]: 100 | Plant response rating, Lambsquarters [19, 27]: 100 | Plant response rating (0 to 100), Lambsquarters ([19]; preemergence, Rate 250 g/ha): 100 | Plant response rating, Lambsquarters [19, 26]: 100
